Tests used:
[1] = test system: CAKI-1; assay: Cytotoxicity against human Caki1 cells assessed as cell growth at 10 uM after 48 hrs by SRB assay relative to control; format: functional; settings: CAKI-1, 48 h, read-out: Activity
[2] = test system: T47D; assay: Cytotoxicity against human T47D cells assessed as cell growth at 10 uM after 48 hrs by SRB assay relative to control; format: functional; settings: read-out: Activity
[3] = test system: MDA-MB-231; assay: Cytotoxicity against human MDA-MB-231 cells assessed as cell growth at 10 uM after 48 hrs by SRB assay relative to control; format: functional; settings: MDA-MB-231, 48 h, read-out: Activity
[4] = test system: MOLT-4; assay: Cytotoxicity against human MOLT4 cells assessed as cell growth at 10 uM after 48 hrs by SRB assay relative to control; format: functional; settings: MOLT-4, 48 h, read-out: Activity
[5] = test system: IGROV-1; assay: Cytotoxicity against human IGROV1 cells assessed as cell growth at 10 uM after 48 hrs by SRB assay relative to control; format: functional; settings: IGROV-1, 48 h, read-out: Activity
[6] = test system: OVCAR-3; assay: Cytotoxicity against human OVCAR3 cells assessed as cell growth at 10 uM after 48 hrs by SRB assay relative to control; format: functional; settings: OVCAR-3, 48 h, read-out: Activity
[7] = molecular target: Serine/threonine-protein kinase pim-1 (Homo sapiens, UniProt P11309); assay: Inhibition of recombinant full length human PIM1 expressed in bacteria using histone H1 as substrate in presence of [gamma-33P]ATP
Chain of Serine/threonine-protein kinase pim-1 (P11309 whole entry, the tested form may be a part): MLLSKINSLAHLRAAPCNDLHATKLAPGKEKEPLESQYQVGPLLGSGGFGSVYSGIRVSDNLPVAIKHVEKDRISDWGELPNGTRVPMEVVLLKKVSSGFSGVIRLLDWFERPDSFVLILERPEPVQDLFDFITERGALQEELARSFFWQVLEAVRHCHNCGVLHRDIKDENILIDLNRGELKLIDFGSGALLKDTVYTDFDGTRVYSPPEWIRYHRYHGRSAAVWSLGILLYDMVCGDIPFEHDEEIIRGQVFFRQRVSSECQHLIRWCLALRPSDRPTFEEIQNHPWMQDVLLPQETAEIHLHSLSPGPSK

[8] = molecular target: T1, Serine/threonine-protein kinase haspin (Homo sapiens) (UniProt Q8TF76); assay: Inhibition of recombinant human haspin kinase domain expressed in bacteria assessed as residual activity at 10 uM using histone H3 (1 to 21 residues) peptide as substrate in presence of [gamma-33P]ATP
T1 sequence (whole entry): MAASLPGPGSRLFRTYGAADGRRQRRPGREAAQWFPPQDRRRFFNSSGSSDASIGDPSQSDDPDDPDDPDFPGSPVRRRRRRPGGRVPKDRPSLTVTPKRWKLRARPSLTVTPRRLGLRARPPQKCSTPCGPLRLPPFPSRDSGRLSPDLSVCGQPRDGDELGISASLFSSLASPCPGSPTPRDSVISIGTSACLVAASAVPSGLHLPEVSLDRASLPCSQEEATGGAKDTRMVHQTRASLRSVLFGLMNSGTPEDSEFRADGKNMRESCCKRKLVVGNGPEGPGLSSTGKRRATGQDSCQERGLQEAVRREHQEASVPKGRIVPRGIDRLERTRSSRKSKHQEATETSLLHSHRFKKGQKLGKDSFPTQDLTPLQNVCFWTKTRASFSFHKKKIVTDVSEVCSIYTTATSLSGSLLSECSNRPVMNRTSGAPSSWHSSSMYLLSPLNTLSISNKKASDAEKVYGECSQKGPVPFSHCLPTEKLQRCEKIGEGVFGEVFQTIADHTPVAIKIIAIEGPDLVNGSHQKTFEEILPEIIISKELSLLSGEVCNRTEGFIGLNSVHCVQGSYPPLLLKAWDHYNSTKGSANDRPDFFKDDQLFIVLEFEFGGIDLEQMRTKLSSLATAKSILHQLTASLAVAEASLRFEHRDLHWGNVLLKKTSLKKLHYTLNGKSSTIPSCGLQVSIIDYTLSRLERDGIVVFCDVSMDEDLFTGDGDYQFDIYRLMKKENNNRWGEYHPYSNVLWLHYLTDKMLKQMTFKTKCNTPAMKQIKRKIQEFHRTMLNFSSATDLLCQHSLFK

[9] = test system: OVCAR-4; assay: Cytotoxicity against human OVCAR4 cells assessed as cell growth at 10 uM after 48 hrs by SRB assay relative to control; format: functional; settings: OVCAR-4, 48 h, read-out: Activity
[10] = test system: SF-295; assay: Cytotoxicity against human SF295 cells assessed as cell growth at 10 uM after 48 hrs by SRB assay relative to control; format: functional; settings: SF-295, 48 h, read-out: Activity
[11] = test system: HOP-92; assay: Cytotoxicity against human HOP92 cells assessed as cell growth at 10 uM after 48 hrs by SRB assay relative to control; format: functional; settings: HOP-92, 48 h, read-out: Activity
[12] = test system: K562; assay: Cytotoxicity against human K562 cells assessed as cell growth at 10 uM after 48 hrs by SRB assay relative to control; format: functional; settings: K562, 48 h, read-out: Activity
[13] = test system: NCI-H522; assay: Cytotoxicity against human NCI-H522 cells assessed as cell growth at 10 uM after 48 hrs by SRB assay relative to control; format: functional; settings: NCI-H522, 48 h, read-out: Activity
[14] = test system: DU-145; assay: Cytotoxicity against human DU145 cells assessed as cell growth at 10 uM after 48 hrs by SRB assay relative to control; format: functional; settings: DU-145, 48 h, read-out: Activity
[15] = test system: EKVX; assay: Cytotoxicity against human EKVX cells assessed as cell growth at 10 uM after 48 hrs by SRB assay relative to control; format: functional; settings: read-out: Activity
[16] = test system: SK-MEL-2; assay: Cytotoxicity against human SK-MEL-2 cells assessed as cell growth at 10 uM after 48 hrs by SRB assay relative to control; format: functional; settings: SK-MEL-2, 48 h, read-out: Activity
[17] = test system: SF-539; assay: Cytotoxicity against human SF539 cells assessed as cell growth at 10 uM after 48 hrs by SRB assay relative to control; format: functional; settings: SF-539, 48 h, read-out: Activity
[18] = test system: ACHN; assay: Cytotoxicity against human ACHN cells assessed as cell growth at 10 uM after 48 hrs by SRB assay relative to control; format: functional; settings: read-out: Activity
[19] = test system: UACC-257; assay: Cytotoxicity against human UACC257 cells assessed as cell growth at 10 uM after 48 hrs by SRB assay relative to control; format: functional; settings: UACC-257, 48 h, read-out: Activity
[20] = molecular target: Cyclin-dependent kinase 5/CDK5 activator 1 (Homo sapiens, UniProt Q00535); assay: Inhibition of recombinant full length human CDK5/p25 expressed in bacteria using histone H1 as substrate in presence of [gamma-33P]ATP
Chain of Cyclin-dependent kinase 5/CDK5 activator 1 (Q00535 whole entry): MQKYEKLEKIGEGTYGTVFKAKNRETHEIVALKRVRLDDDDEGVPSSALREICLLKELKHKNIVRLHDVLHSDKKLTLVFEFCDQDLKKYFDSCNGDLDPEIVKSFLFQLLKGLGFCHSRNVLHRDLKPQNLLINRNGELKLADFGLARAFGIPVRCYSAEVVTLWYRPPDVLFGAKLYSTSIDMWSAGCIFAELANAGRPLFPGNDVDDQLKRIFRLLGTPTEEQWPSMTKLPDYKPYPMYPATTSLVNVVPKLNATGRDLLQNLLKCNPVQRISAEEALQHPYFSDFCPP
Chain of Cyclin-dependent kinase 5/CDK5 activator 1 (Q15078 whole entry, further chain): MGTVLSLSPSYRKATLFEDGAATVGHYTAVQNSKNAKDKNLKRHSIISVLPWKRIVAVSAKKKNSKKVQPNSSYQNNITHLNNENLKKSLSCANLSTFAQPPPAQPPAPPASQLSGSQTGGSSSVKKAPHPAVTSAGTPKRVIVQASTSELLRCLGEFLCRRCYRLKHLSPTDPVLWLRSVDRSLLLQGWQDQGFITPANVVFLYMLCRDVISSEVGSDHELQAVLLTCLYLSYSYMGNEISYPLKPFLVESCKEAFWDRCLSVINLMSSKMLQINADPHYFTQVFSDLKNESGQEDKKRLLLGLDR

[21] = molecular target: Aurora kinase B (Homo sapiens, UniProt Q96GD4); assay: Inhibition of recombinant full length human aurora B expressed in baculovirus infected Sf9 insect cells using MBP as substrate in presence of [gamma-33P]ATP
Chain of Aurora kinase B (Q96GD4 whole entry): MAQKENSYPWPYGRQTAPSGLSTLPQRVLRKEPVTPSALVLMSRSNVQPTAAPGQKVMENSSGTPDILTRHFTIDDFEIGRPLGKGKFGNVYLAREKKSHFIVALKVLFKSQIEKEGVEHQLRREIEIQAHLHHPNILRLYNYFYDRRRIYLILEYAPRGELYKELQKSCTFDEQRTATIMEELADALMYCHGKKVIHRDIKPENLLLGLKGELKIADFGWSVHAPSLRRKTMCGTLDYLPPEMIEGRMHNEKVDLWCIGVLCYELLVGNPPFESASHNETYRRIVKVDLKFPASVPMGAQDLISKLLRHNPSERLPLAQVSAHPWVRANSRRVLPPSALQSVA

[22] = test system: 786-0; assay: Cytotoxicity against human 786-O cells assessed as cell growth at 10 uM after 48 hrs by SRB assay relative to control; format: functional; settings: 786-0, 48 h, read-out: Activity
[23] = test system: SNB-19; assay: Cytotoxicity against human SNB19 cells assessed as cell growth at 10 uM after 48 hrs by SRB assay relative to control; format: functional; settings: SNB-19, 48 h, read-out: Activity

Structure (SMILES): O=C1C2=C(C(=O)N1O)c1cn(c3ccccc13)CCCCCCn1cc2c2ccccc21
- growth at 10 µM [1]: 95.7%
- growth at 10 µM [2]: 104%
- growth at 10 µM [3]: 104%
- growth at 10 µM [4]: 110%
- growth at 10 µM [5]: 113%
- growth at 10 µM [6]: 106%
- IC50 [7]: > 10 µM
- Activity [8]: 134%
- growth at 10 µM [9]: 113%
- growth at 10 µM [10]: 107%
- growth at 10 µM [11]: 79.6%
- growth at 10 µM [12]: 109%
- growth at 10 µM [13]: 108%
- growth at 10 µM [14]: 108%
- growth at 10 µM [15]: 103%
- growth at 10 µM [16]: 120%
- growth at 10 µM [17]: 95.7%
- growth at 10 µM [18]: 109%
- growth at 10 µM [19]: 106%
- IC50 [20]: > 10 µM
- IC50 [21]: > 10 µM

Structure (SMILES): Cn1cc(C2=C(c3cn(CCCCCC(=O)O)c4ccccc34)C(=O)N(O)C2=O)c2ccccc21
- growth at 10 µM [1]: 86.8%
- growth at 10 µM [2]: 85.4%
- growth at 10 µM [3]: 84.7%
- growth at 10 µM [4]: 92.6%
- growth at 10 µM [5]: 103%
- growth at 10 µM [6]: 104%
- IC50 [7]: > 10 µM
- Activity [8]: 103%
- growth at 10 µM [9]: 94.5%
- growth at 10 µM [22]: 96.3%
- growth at 10 µM [10]: 102%
- growth at 10 µM [11]: 71.8%
- growth at 10 µM [12]: 103%
- growth at 10 µM [13]: 88.3%
- growth at 10 µM [14]: 109%
- growth at 10 µM [23]: 104%
- growth at 10 µM [17]: 98.9%
- growth at 10 µM [18]: 92.9%
- growth at 10 µM [19]: 102%
- IC50 [20]: > 10 µM
- IC50 [21]: > 10 µM

Structure (SMILES): O=C(O)CCCCCn1cc(C2=C(c3c[nH]c4ccccc34)C(=O)N(O)C2=O)c2ccccc21
- growth at 10 µM [1]: 92.2%
- growth at 10 µM [2]: 96.2%
- growth at 10 µM [3]: 92.6%
- growth at 10 µM [4]: 99.7%
- growth at 10 µM [5]: 93.4%
- growth at 10 µM [6]: 99.3%
- IC50 [7]: > 10 µM
- Activity [8]: 113%
- growth at 10 µM [9]: 113%
- growth at 10 µM [22]: 93%
- growth at 10 µM [10]: 105%
- growth at 10 µM [12]: 94.8%
- growth at 10 µM [13]: 88.3%
- growth at 10 µM [14]: 104%
- growth at 10 µM [16]: 99.4%
- growth at 10 µM [23]: 107%
- growth at 10 µM [17]: 96.3%
- growth at 10 µM [18]: 97.5%
- growth at 10 µM [19]: 111%
- IC50 [20]: > 10 µM
- IC50 [21]: > 10 µM

Structure (SMILES): Cn1cc(C2=C(c3cn(CCCCCC#N)c4ccccc34)C(=O)N(O)C2=O)c2ccccc21
- growth at 10 µM [1]: 81.3%
- growth at 10 µM [2]: 78.5%
- growth at 10 µM [3]: 58.9%
- growth at 10 µM [4]: 95.7%
- growth at 10 µM [5]: 93.8%
- growth at 10 µM [6]: 93.6%
- IC50 [7]: > 10 µM
- Activity [8]: 114%
- growth at 10 µM [9]: 116%
- growth at 10 µM [22]: 83.7%
- growth at 10 µM [10]: 107%
- growth at 10 µM [12]: 78.8%
- growth at 10 µM [14]: 106%
- growth at 10 µM [16]: 94.1%
- growth at 10 µM [23]: 104%
- growth at 10 µM [17]: 98.4%
- growth at 10 µM [18]: 97.4%
- growth at 10 µM [19]: 110%
- IC50 [20]: > 10 µM
- IC50 [21]: > 10 µM

Structure (SMILES): CC(C)n1cc(C2=C(c3cn(C)c4ccccc34)C(=O)N(O)C2=O)c2ccccc21
- growth at 10 µM [1]: 72.7%
- growth at 10 µM [2]: 87.3%
- growth at 10 µM [3]: 70.1%
- growth at 10 µM [4]: 82.4%
- growth at 10 µM [5]: 96.2%
- growth at 10 µM [6]: 87.6%
- IC50 [7]: > 10 µM
- Activity [8]: 127%
- growth at 10 µM [9]: 99.6%
- growth at 10 µM [22]: 86.5%
- growth at 10 µM [10]: 101%
- growth at 10 µM [12]: 77.7%
- growth at 10 µM [13]: 84.7%
- growth at 10 µM [14]: 192%
- growth at 10 µM [16]: 86.6%
- growth at 10 µM [23]: 101%
- growth at 10 µM [17]: 97.6%
- growth at 10 µM [18]: 88%
- IC50 [20]: > 10 µM
- IC50 [21]: > 10 µM
